According to ChEMBL document CHEMBL5465560, “Selectivity Literature for EUbOPEN Chemogenomic Library” (2024):
Values belong to the compound of their own block, whether it stands above or below them.

Experiments:
[1] = tested on: Tyrosine-protein kinase JAK2 (Homo sapiens), O60674 [V617F]; test: (§1) Selectivity interaction (SelectScreen profiling (Invitrogen)) EUB0000607a JAK2; conditions: at 2 µM
[2] = molecular target: Tyrosine-protein kinase JAK2 (Homo sapiens, UniProt O60674); test: as §1; conditions: at 2 µM
[3] = molecular target: T1, SNF-related serine/threonine-protein kinase (Homo sapiens) (UniProt Q9NRH2); test: Selectivity interaction (ActivX KiNativ screen (kinase selectivity in THP-1 cell lysates)) EUB0000639a SNRK; assay type: subcellular; conditions: lysate, at 1 µM
T1 sequence (whole entry): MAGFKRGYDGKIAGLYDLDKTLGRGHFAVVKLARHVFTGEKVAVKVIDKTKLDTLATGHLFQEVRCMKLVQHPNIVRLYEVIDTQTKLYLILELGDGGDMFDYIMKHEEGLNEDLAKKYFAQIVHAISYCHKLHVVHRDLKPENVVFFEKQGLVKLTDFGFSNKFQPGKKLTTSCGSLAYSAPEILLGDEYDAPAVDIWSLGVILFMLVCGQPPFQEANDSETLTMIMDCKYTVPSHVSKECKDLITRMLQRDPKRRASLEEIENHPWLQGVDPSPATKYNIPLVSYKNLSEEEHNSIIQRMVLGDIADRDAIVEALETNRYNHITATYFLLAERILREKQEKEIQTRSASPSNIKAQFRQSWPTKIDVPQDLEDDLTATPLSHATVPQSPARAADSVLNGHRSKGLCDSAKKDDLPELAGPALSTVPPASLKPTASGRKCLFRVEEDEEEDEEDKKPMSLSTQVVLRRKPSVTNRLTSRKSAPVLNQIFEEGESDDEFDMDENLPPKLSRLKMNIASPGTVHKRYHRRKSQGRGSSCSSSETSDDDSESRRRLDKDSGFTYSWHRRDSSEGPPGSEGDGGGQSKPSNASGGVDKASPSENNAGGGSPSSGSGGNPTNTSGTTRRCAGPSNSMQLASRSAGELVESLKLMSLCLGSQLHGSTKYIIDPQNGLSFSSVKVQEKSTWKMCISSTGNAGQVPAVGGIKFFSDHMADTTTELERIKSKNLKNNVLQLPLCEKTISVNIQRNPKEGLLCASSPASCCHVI

[4] = molecular target: Calcium/calmodulin-dependent protein kinase type II subunit gamma (Homo sapiens) (UniProt Q13555); test: Selectivity interaction (KinomeScan (DiscoverX)) EUB0000595a CAMK2G; conditions: at 10 µM
[5] = molecular target: NT-3 growth factor receptor (Homo sapiens, UniProt Q16288); test: Selectivity interaction (KinomeScan (DiscoverX)) EUB0001049a NTRK3; conditions: at 1 µM
Insulin receptor = Insulin receptor (Homo sapiens, UniProt P06213); test: Selectivity interaction (KinomeScan (DiscoverX)) EUB0000655a INSR; conditions: at 10 µM
[6] = molecular target: T2, NUAK family SNF1-like kinase 1 (Homo sapiens) (UniProt O60285); test: Selectivity interaction (KinomeScan (DiscoverX)) EUB0000655a NUAK1; conditions: at 10 µM
T2 sequence (whole entry): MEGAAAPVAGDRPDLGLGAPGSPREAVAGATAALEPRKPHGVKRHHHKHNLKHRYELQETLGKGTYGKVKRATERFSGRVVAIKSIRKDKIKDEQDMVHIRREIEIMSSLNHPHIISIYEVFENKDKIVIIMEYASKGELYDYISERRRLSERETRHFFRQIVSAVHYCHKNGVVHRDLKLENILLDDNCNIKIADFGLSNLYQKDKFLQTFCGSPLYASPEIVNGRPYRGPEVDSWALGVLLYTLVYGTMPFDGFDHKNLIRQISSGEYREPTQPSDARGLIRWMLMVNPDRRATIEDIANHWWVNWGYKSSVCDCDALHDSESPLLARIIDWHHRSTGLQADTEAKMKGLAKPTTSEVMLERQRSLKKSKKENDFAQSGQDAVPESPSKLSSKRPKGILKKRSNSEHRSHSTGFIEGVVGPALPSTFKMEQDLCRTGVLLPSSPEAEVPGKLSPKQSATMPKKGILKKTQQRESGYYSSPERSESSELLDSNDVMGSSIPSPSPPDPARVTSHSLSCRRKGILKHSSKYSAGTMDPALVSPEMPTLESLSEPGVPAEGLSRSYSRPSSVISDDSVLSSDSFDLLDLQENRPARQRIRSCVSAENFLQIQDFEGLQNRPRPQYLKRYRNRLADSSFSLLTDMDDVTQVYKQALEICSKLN

[7] = tested on: Epidermal growth factor receptor (Homo sapiens), P00533 [UNDEFINED MUTATION]; test: Selectivity interaction (KinomeScan (DiscoverX)) EUB0001079a EGFR; conditions: at 1 µM
[8] = molecular target: Histone-lysine N-methyltransferase 2A (Homo sapiens) (UniProt Q03164); conditions: at 10 µM
[9] = molecular target: T3, Serine/threonine-protein kinase ULK2 (Homo sapiens) (UniProt Q8IYT8); test: Selectivity interaction (KinomeScan (DiscoverX)) EUB0001619a ULK2; conditions: at 1 µM
T3 sequence (whole entry): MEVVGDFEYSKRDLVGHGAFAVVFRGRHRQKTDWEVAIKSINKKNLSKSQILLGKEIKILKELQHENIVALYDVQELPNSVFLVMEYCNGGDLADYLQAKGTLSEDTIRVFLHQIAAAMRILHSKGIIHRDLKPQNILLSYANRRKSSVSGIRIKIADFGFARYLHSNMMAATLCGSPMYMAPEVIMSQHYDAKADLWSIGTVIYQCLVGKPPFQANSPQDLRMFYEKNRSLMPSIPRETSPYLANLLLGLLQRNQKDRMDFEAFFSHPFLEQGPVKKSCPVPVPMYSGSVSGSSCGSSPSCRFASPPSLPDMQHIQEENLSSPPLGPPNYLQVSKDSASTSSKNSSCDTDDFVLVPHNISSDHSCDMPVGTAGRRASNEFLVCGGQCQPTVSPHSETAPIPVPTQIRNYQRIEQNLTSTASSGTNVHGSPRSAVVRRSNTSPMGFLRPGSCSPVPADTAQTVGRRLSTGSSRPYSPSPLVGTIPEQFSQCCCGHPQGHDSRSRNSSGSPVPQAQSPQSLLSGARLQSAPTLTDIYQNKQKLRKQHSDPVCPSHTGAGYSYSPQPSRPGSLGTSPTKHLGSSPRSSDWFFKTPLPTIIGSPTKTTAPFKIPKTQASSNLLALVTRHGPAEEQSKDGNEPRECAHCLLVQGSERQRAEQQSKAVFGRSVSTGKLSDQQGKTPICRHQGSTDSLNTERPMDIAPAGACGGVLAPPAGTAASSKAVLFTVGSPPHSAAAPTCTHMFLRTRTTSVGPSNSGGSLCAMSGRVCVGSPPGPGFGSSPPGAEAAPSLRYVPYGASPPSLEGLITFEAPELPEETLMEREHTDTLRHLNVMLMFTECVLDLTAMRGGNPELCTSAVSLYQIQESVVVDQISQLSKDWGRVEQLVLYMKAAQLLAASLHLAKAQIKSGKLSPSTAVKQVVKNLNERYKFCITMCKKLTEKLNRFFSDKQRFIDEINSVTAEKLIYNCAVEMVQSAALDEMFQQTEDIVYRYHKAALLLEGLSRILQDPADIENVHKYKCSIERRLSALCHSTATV

Insulin receptor, sequence (P06213 28-758 limits assumed): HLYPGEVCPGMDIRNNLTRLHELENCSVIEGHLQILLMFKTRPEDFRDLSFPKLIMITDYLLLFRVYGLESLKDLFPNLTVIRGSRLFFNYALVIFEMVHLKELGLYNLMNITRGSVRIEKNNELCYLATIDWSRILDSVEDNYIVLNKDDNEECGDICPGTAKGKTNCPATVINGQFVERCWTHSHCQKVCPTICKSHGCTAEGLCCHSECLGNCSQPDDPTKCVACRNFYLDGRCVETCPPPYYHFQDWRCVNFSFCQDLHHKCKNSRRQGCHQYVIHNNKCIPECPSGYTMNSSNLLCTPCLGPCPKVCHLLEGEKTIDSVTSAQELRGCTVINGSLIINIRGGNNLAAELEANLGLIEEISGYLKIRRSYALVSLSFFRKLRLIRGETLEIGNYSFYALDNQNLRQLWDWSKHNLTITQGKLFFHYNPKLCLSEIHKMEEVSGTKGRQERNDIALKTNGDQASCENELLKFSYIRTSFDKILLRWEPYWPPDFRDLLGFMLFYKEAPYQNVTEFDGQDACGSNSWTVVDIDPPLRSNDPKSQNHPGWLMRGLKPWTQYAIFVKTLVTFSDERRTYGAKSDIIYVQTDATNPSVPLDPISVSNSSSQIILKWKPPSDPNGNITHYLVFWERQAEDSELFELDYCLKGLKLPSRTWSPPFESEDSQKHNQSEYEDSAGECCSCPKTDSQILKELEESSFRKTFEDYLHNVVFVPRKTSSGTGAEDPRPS
Insulin receptor, sequence (P06213 763-1382 limits assumed): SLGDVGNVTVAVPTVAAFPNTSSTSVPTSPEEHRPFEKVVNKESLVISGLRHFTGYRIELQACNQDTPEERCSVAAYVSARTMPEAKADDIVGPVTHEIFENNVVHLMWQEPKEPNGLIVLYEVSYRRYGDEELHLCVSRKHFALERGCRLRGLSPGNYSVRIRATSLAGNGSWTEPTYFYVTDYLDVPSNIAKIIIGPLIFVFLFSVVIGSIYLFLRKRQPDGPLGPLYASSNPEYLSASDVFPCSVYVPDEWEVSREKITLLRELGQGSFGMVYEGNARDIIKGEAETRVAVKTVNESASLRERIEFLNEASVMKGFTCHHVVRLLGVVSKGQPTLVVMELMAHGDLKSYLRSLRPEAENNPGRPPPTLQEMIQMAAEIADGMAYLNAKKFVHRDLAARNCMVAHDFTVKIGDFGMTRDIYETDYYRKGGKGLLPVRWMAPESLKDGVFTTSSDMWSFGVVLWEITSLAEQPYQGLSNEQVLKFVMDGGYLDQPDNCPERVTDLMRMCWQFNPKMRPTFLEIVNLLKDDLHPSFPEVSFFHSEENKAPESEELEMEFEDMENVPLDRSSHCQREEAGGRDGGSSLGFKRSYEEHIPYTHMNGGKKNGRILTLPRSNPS
Epidermal growth factor receptor (Homo sapiens), P00533 [UNDEFINED MUTATION], sequence (P00533 whole entry, looked up, change not shown): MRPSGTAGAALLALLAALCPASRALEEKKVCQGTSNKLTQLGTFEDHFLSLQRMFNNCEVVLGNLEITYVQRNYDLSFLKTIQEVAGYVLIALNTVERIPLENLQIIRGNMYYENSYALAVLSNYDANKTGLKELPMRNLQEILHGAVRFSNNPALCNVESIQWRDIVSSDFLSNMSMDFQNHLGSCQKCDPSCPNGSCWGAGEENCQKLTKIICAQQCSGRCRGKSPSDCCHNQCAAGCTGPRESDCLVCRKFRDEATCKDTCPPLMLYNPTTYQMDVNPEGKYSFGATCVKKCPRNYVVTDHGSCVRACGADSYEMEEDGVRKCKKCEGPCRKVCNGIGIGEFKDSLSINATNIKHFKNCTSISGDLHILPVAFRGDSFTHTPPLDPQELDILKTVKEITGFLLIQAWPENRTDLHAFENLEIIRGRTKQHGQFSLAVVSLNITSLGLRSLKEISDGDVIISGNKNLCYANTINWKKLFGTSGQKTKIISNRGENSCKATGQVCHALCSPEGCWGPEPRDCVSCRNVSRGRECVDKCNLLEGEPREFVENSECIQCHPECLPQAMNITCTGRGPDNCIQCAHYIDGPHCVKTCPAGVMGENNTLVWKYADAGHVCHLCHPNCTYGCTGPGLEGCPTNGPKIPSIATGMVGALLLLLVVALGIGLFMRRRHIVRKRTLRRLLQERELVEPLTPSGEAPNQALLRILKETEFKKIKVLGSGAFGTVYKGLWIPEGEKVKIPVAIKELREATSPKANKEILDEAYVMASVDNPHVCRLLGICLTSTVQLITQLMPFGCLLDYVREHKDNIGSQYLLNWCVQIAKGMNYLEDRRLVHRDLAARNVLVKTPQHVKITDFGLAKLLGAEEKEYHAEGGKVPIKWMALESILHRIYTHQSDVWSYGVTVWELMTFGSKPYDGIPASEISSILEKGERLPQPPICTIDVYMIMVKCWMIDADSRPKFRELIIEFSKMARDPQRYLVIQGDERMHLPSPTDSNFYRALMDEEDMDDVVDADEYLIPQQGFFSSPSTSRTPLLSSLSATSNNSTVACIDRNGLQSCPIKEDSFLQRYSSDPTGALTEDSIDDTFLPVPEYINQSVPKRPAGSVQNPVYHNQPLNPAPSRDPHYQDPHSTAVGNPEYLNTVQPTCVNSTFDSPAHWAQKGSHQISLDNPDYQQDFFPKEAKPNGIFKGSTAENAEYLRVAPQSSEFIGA
Tyrosine-protein kinase JAK2, sequence (O60674 whole entry): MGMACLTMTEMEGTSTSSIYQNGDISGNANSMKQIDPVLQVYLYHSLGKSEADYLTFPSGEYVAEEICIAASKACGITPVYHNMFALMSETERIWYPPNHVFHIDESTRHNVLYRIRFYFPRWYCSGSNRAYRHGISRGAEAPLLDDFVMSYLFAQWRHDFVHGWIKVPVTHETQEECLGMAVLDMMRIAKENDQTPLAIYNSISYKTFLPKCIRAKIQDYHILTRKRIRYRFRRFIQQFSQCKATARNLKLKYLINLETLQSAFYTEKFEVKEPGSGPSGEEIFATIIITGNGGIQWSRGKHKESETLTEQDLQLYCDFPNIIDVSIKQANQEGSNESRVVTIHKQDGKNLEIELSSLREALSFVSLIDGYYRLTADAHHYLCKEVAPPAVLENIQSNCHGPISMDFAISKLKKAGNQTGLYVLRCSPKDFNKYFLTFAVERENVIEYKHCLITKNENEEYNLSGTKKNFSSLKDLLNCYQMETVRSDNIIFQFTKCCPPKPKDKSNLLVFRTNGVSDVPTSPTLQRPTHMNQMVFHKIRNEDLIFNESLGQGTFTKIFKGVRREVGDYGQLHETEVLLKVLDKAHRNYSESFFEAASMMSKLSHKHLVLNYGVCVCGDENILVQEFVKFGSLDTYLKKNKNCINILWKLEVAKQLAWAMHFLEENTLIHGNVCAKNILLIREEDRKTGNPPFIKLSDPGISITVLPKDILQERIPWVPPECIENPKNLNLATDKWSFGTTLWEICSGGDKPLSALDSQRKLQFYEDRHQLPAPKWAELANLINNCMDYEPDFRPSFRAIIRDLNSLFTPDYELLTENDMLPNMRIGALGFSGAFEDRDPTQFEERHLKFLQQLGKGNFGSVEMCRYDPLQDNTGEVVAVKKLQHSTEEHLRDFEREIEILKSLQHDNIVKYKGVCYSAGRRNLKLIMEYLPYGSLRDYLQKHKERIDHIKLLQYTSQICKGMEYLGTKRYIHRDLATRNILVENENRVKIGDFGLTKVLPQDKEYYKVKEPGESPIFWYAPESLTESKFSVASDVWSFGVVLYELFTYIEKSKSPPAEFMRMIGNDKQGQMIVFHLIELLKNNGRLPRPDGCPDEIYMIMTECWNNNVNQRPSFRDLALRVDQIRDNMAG
NT-3 growth factor receptor, sequence (Q16288 32-839 limits assumed): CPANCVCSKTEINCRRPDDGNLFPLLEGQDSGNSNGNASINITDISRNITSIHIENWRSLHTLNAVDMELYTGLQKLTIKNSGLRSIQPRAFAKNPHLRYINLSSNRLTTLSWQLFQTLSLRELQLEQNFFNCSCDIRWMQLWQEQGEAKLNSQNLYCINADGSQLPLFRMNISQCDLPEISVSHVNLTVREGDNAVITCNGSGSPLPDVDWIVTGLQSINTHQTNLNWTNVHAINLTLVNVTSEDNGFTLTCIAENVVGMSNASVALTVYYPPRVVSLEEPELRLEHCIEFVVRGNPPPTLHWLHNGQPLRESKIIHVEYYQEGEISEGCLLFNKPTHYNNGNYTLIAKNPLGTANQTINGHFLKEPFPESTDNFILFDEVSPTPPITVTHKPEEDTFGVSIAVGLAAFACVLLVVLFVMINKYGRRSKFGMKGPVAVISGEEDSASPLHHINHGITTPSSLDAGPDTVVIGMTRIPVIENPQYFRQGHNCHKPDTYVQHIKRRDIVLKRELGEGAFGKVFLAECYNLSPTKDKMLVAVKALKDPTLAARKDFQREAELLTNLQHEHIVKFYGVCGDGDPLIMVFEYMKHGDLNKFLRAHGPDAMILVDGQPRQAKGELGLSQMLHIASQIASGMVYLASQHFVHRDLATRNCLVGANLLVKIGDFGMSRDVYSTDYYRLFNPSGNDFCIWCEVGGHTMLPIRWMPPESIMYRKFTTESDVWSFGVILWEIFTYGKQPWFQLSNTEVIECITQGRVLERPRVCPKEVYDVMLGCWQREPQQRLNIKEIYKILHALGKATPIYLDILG
Tyrosine-protein kinase JAK2 (Homo sapiens), O60674 [V617F], sequence (O60674 whole entry V617F): as the sequence (O60674 whole entry) above, with V617F counted along it

Compound: CNC(=O)Nc1ccc(-c2nc(N3CC4CCC(C3)O4)c3cnn(C4CCC5(CC4)OCCO5)c3n2)cc1
% of inhibition [1]: 4%
% of inhibition [2]: -3%

% of inhibition [3]: 2.6%
Compound: CC[C@@H]1[C@H](F)C(=O)N[C@@H]1COc1nccc2cc(C(N)=O)c(OC)cc12 [ZIMLOVISERTIB]

Compound: COCC(=O)NC/C=C/c1ccc2ncnc(Nc3ccc(Oc4ccc(C)nc4)c(C)c3)c2c1 [CP-724714]
% of control [4]: 94%

Compound: COc1cc(Nc2nc(C)cc(-c3cnn4nc(OC)ccc34)n2)cc(C(F)(F)F)c1
% of control [5]: 84%

Compound: CN(C)CCOc1ccc(-c2nc(-c3ccncc3)c(-c3ccc4c(c3)CC/C4=N\O)[nH]2)cc1
% of control (Insulin receptor): 100%
% of control [6]: 100%

Compound: Nc1cnc(N2CCc3cc(S(=O)(=O)Nc4c(F)cc(Cl)cc4F)cc(N4CCCC4=O)c32)nc1 [TP-020n]
% of control [7]: 63%

% activity [8]: > 90%
Compound: CNCCN1CCC(c2cc(CN(C)C(=O)c3cccc(Oc4ccccc4)c3)ccn2)CC1

Compound: N#Cc1cccc(-c2c[nH]c3ncnc(N4CCOCC4)c23)c1
% of control [9]: 69%
